Source: patent US11638425B2, “Agent for inducing stress tolerance in plants” (Menicon Co. Ltd., priority 2017, dated 2023)

Assays:
Format in all cases: in vivo
[1] = test system: HSP17.6C-C1 of Arabidopsis thaliana; assay: HSP expression test (HSP17.6C-C1 upstream region linked to GUS, 4-MU production); parameters: key: 4-MU per plant divided by 4-MU of 50 μM geldanamycin positive control; conditions: soaked 6 hours at 22° C., positive control 50 μM geldanamycin
Method: First, a construct linked to β-glucuronidase (GUS) gene was introduced to 1 kb upstream of HSP17.6C-C1 of Arabidopsis thaliana (the family Brassicaceae) to prepare a mutant. Each naphthoquinone compound (shown in Table 1) dissolved in DMSO was diluted to 1 μM, 10 μM, 100 μM, or 1000 μM (final concentration) with deionized water to prepare a test solution of each example (final concentration of DMSO: 1.0% by volume). A 50 μM geldanamycin solution was similarly prepared as a positive control.
Next, two individuals of 7-day-old Arabidopsis thaliana mutants grown in a ⅕ MS medium were soaked in 300 μL of the test solution of each example or the positive control at 22° C. for 6 hours. The Arabidopsis thaliana was washed with deionized water, then soaked in 200 μL of a 4-methylumbelliferyl-β-D-glucuronide hydrate solution containing a surfactant, and incubated at 22° C. for 16 hours in the dark. The fluorescence intensity of the supernatant was measured, and the amount of 4-methylumbelliferone (4-MU) production per plant was calculated. The calculated value of 4-MU was divided by the value of 4-MU of the positive control to calculate a ratio vs. positive control. A higher numerical value means that HSP was expressed at a larger level.
Each shikonin compound or alkannin compound (shown in Table 2) dissolved in DMSO was diluted to 1 μM, 10 μM, 100 μM, or 1000 μM (final concentration) with deionized water to prepare a test solution of each example (final concentration of DMSO: 1.0% by volume). A 50 μM geldanamycin solution was similarly prepared as a positive control. The other test procedures were performed in the same way as in Test Example 1. The calculated value of 4-MU was divided by the value of 4-MU of the positive control to calculate a ratio vs. positive control. […]

[2] = test system: Arabidopsis thaliana; assay: Heat tolerance induction test based on chlorophyll concentration; conditions: 50 μM in medium; heat-treated at 44° C. for 1 hour; 3 days culture after
Method: A ⅕ MS medium was prepared in a 6-well plate, and filter paper was placed thereon. 12 individuals of wild-type Arabidopsis thaliana were seeded per well and grown at 22° C. for 7 days in a plant incubator under 16-hour light and 8-hour dark conditions. Next, the naphthoquinone compound of each example (shown in Table 3) dissolved in DMSO was added to a ⅕ MS medium, and each medium (final concentration: 50 μM) was prepared in a 6-well plate (final concentration of DMSO: 1.0% by volume). A medium containing 1.0% by volume of DMSO was used as a control.
The Arabidopsis thaliana grown for 7 days in the 6-well plate was transplanted, together with the filter paper, to the medium containing the compound and cultured for 1 day in a plant incubator. The plate was placed in a plastic bag and heat-treated at 44° C. for 1 hour in a water bath. After the heat treatment, culture was performed for 3 days in a plant incubator. The leaves of 4 Arabidopsis thaliana individuals were cut out, and chlorophyll was extracted with 300 μL of ethanol. The absorbance of each extract was measured at 649 nm and 665 nm, and the chlorophyll concentration (mg/L) was calculated. A higher chlorophyll concentration means that heat tolerance is better.
The shikonin compound of each example (shown in Table 4) dissolved in DMSO was added to a ⅕ MS medium, and each medium (final concentration: 50 μM) was prepared in a 6-well plate (final concentration of DMSO: 1.0% by volume). A medium containing 1% by volume of DMSO was used as a control. The other test procedures were performed in the same way as in Test Example 3.
The Lithospermi radix extract used was Shikonix Liquid (BG) (trade name, manufactured by Ichimaru Pharcos Co., Ltd.) containing a Lithospermum erythrorhizon root extract. The Shikonix Liquid contained, as major components, shikonin compounds such as acetylshikonin, β-hydroxyisovalerylshikonin, and isobutyrylshikonin. The Shikonix Liquid also contained, as additional minor components, α-methyl-n-butylshikonin, β,β-dimethylacrylshikonin, isovalerylshikonin, and shikonin.
The Shikonix Liquid (BG) was added at a dilution ratio of 150-fold to a ⅕ MS medium. The same amount of water was added as a control. ThermoZyme (manufactured by Fujimikogyo Co., Ltd.) was added at a dilution ratio of 150-fold as a positive control (Reference Example). The other test procedures were performed in the same way as in Test Example 3.

[3] = test system: maize; assay: Drought tolerance improvement test of maize; conditions: 10 μM, 2 mL/cell; 19 days without water, counted 5 days after water addition
Method: Four parts each involving 9 cells (3×3) were cut out of a 72-cell tray. Seedling soil was placed therein, and water was added. 4 seeds of maize were seeded per cell. The temperature was set to 20° C. using a plant growth chamber, followed by cultivation under 16-hour light and 8-hour dark conditions. After budding, each naphthoquinone compound dissolved in DMSO was diluted to 10 μM (final concentration) with deionized water to prepare a test solution of each example (final concentration of DMSO: 1.0% by volume). Each test solution was sprayed to leaf surface in one of the cell trays. The volume of the test solution sprayed was set to 2 mL/cell. The same volume of water was sprayed to the other cell tray and used as a control. After the spraying, cultivation was continued without the addition of water. 19 days after the spraying, water was added to the soil. 5 days after the water addition, the number of maize survivors was counted and divided by the initial number of growing plants to calculate a survival rate (%).

[4] = test system: maize; assay: Salt tolerance improvement test of maize; conditions: 10 μM, 2 mL/cell; 1.0% NaCl five times every two days; fresh weight
Method: (§1) Two parts each involving 9 cells (3×3) were cut out of a 72-cell tray. Seedling soil was placed therein, and water was added. 4 seeds of maize were seeded per cell. The temperature was set to 20° C. using a plant growth chamber, followed by cultivation under 16-hour light and 8-hour dark conditions. After budding, Shikonix Liquid (BG) (manufactured by Ichimaru Pharcos Co., Ltd.) was diluted 500-fold and sprayed as the Lithospermi radix extract to leaf surface in one of the cell trays. The volume of the Shikonix Liquid sprayed was set to 2 mL/cell. The same volume of water was sprayed to the other cell tray and used as a control. Two days later, a 1.0% NaCl solution was prepared and absorbed from the underside of each cell tray. The NaCl solution treatment was performed five times every two days. The above-ground parts were cut off, and their fresh weights were measured. An average value (g/plant) was calculated.
as §1, with “Four parts” for “Two parts”, “budding, each naphthoquinone compound dissolved in DMSO” for “budding, Shikonix Liquid (BG) (manufactured by Ichimaru Pharcos Co., Ltd.)”, “diluted to 10 μM (final concentration) with deionized water to prepare a test solution of each example (final concentration of DMSO: 1.0% by volume). Each test solution was” for “diluted 500-fold and”, “sprayed” for “sprayed as the Lithospermi radix extract”, “the test solution” for “the Shikonix Liquid”

## NC1=C(Cl)C(=O)c2ccccc2C1=O [Example 12, 2-Amino-3-chloro-1,4-naphthoquinone]
[1]; 1 μM
  Ratio of 4-MU amount vs. positive control: 0.06
[1]; 10 μM
  Ratio of 4-MU amount vs. positive control: 0.15
[1]; 100 μM
  Ratio of 4-MU amount vs. positive control: 0.19
[1]; 1000 μM
  Ratio of 4-MU amount vs. positive control: 0.14

## CC(C)=CC[C@@H](O)C1=CC(=O)c2c(O)ccc(O)c2C1=O [Example 13, Shikonin]
[2]
  Chlorophyll concentration: 6.28 mg/L
[1]; 1 μM
  Ratio of 4-MU amount vs. positive control: 0.04
[1]; 10 μM
  Ratio of 4-MU amount vs. positive control: 0.92
[1]; 100 μM
  Ratio of 4-MU amount vs. positive control: 1.52
[1]; 1000 μM
  Ratio of 4-MU amount vs. positive control: 0.85

## CC(C)=CCC(OC(=O)C=C(C)C)C1=CC(=O)c2c(O)ccc(O)c2C1=O (stereo not drawn) [Example 19, β,β-Dimethylacrylshikonin]
[1]; 1 μM
  Ratio of 4-MU amount vs. positive control: 0.02
[1]; 10 μM
  Ratio of 4-MU amount vs. positive control: 0.95
[1]; 100 μM
  Ratio of 4-MU amount vs. positive control: 1.35
[1]; 1000 μM
  Ratio of 4-MU amount vs. positive control: 2.28

## CCC(C)C(=O)O[C@H](CC=C(C)C)C1=CC(=O)c2c(O)ccc(O)c2C1=O (stereo partly drawn) [Example 18, α-Methyl-n-butylshikonin]
[1]; 1 μM
  Ratio of 4-MU amount vs. positive control: 0.02
[1]; 10 μM
  Ratio of 4-MU amount vs. positive control: 1.00
[1]; 100 μM
  Ratio of 4-MU amount vs. positive control: 1.40
[1]; 1000 μM
  Ratio of 4-MU amount vs. positive control: 2.76

## O=C1C(Cl)=C(Cl)C(=O)c2cc([N+](=O)[O-])ccc21 [Example 9, 2,3-Dichloro-6-nitro-1,4-naphthoquinone]
[1]; 1 μM
  Ratio of 4-MU amount vs. positive control: 0.17
[1]; 10 μM
  Ratio of 4-MU amount vs. positive control: 0.91
[1]; 100 μM
  Ratio of 4-MU amount vs. positive control: 0.66
[1]; 1000 μM
  Ratio of 4-MU amount vs. positive control: 0.48

## CC(=O)O[C@H](CC=C(C)C)C1=CC(=O)c2c(O)ccc(O)c2C1=O [Example 14, Acetylshikonin]
[2]
  Chlorophyll concentration: 5.73 mg/L
[1]; 1 μM
  Ratio of 4-MU amount vs. positive control: 0.05
[1]; 10 μM
  Ratio of 4-MU amount vs. positive control: 1.03
[1]; 100 μM
  Ratio of 4-MU amount vs. positive control: 1.00
[1]; 1000 μM
  Ratio of 4-MU amount vs. positive control: 0.81

## O=C1C=C(O)C(=O)c2ccccc21 [Example 2, 2-Hydroxy-1,4-naphthoquinone]
[1]; 1 μM
  Ratio of 4-MU amount vs. positive control: 0.14
[1]; 10 μM
  Ratio of 4-MU amount vs. positive control: 0.15
[1]; 100 μM
  Ratio of 4-MU amount vs. positive control: 0.47
[1]; 1000 μM
  Ratio of 4-MU amount vs. positive control: 0.04

## O=C1C=CC(=O)c2c(O)cccc21 [Example 3, 5-Hydroxy-1,4-naphthoquinone]
[1]; 1 μM
  Ratio of 4-MU amount vs. positive control: 0.17
[1]; 10 μM
  Ratio of 4-MU amount vs. positive control: 0.14
[1]; 100 μM
  Ratio of 4-MU amount vs. positive control: 0.59
[1]; 1000 μM
  Ratio of 4-MU amount vs. positive control: 0.46

## CC1=CC(=O)c2ccccc2C1=O [Example 10, 2-Methyl-1,4-naphthoquinone]
[1]; 1 μM
  Ratio of 4-MU amount vs. positive control: 0.04
[1]; 10 μM
  Ratio of 4-MU amount vs. positive control: 0.05
[1]; 100 μM
  Ratio of 4-MU amount vs. positive control: 0.09
[1]; 1000 μM
  Ratio of 4-MU amount vs. positive control: 0.08

## CC1=CC(=O)c2c(O)cccc2C1=O [Example 4, 5-Hydroxy-2-methyl-1,4-naphthoquinone]
[1]; 1 μM
  Ratio of 4-MU amount vs. positive control: 0.13
[1]; 10 μM
  Ratio of 4-MU amount vs. positive control: 1.0
[1]; 100 μM
  Ratio of 4-MU amount vs. positive control: 0.18
[1]; 1000 μM
  Ratio of 4-MU amount vs. positive control: 0.06

## COC1=CC(=O)c2ccccc2C1=O [Example 11, 2-Methoxy-1,4-naphthoquinone]
[1]; 1 μM
  Ratio of 4-MU amount vs. positive control: 0.06
[1]; 10 μM
  Ratio of 4-MU amount vs. positive control: 0.04
[1]; 100 μM
  Ratio of 4-MU amount vs. positive control: 0.21
[1]; 1000 μM
  Ratio of 4-MU amount vs. positive control: 0.11

## CC(C)=CC[C@@H](OC(=O)CC(C)(C)O)C1=CC(=O)c2c(O)ccc(O)c2C1=O [Example 17, β-Hydroxyisovalerylshikonin]
[2]
  Chlorophyll concentration: 5.57 mg/L
[1]; 1 μM
  Ratio of 4-MU amount vs. positive control: 0.10
[1]; 10 μM
  Ratio of 4-MU amount vs. positive control: 0.71
[1]; 100 μM
  Ratio of 4-MU amount vs. positive control: 0.80
[1]; 1000 μM
  Ratio of 4-MU amount vs. positive control: 0.25

## CC(C)=CC[C@@H](OC(=O)C(C)C)C1=CC(=O)c2c(O)ccc(O)c2C1=O [Example 15, Isobutyrylshikonin]
[2]
  Chlorophyll concentration: 6.29 mg/L
[1]; 1 μM
  Ratio of 4-MU amount vs. positive control: 0.03
[1]; 10 μM
  Ratio of 4-MU amount vs. positive control: 1.79
[1]; 100 μM
  Ratio of 4-MU amount vs. positive control: 1.19
[1]; 1000 μM
  Ratio of 4-MU amount vs. positive control: 1.23

## O=C1C(Cl)=C(Cl)C(=O)c2ccccc21 [Example 6, 2,3-Dichloro-1,4-naphthoquinone]
[3]
  Survival rate: 53%
[4]
  Above-ground part weight: 0.726 g/plant
[2]
  Chlorophyll concentration: 6.21 mg/L
[1]; 1 μM
  Ratio of 4-MU amount vs. positive control: 0.47
[1]; 10 μM
  Ratio of 4-MU amount vs. positive control: 5.12
[1]; 100 μM
  Ratio of 4-MU amount vs. positive control: 1.86
[1]; 1000 μM
  Ratio of 4-MU amount vs. positive control: 1.16

## O=C1C(Cl)=C(Cl)C(=O)c2c1cccc2[N+](=O)[O-] [Example 8, 2,3-Dichloro-5-nitro-1,4-naphthoquinone]
[1]; 1 μM
  Ratio of 4-MU amount vs. positive control: 0.15
[1]; 10 μM
  Ratio of 4-MU amount vs. positive control: 1.00
[1]; 100 μM
  Ratio of 4-MU amount vs. positive control: 0.38
[1]; 1000 μM
  Ratio of 4-MU amount vs. positive control: 0.46

## CC(C)=CC[C@H](O)C1=CC(=O)c2c(O)ccc(O)c2C1=O [Example 20, Alkannin]
[1]; 1 μM
  Ratio of 4-MU amount vs. positive control: 0.04
[1]; 10 μM
  Ratio of 4-MU amount vs. positive control: 0.11
[1]; 100 μM
  Ratio of 4-MU amount vs. positive control: 0.62
[1]; 1000 μM
  Ratio of 4-MU amount vs. positive control: 1.13

## CC(C)=CCC(OC(=O)CC(C)C)C1=CC(=O)c2c(O)ccc(O)c2C1=O (stereo not shown) [Example 16, Isovalerylshikonin]
[1]; 1 μM
  Ratio of 4-MU amount vs. positive control: 0.04
[1]; 10 μM
  Ratio of 4-MU amount vs. positive control: 0.93
[1]; 100 μM
  Ratio of 4-MU amount vs. positive control: 0.85
[1]; 1000 μM
  Ratio of 4-MU amount vs. positive control: 0.76

## O=C1C=CC(=O)c2ccccc21 [Example 1, 1,4-Naphthoquinone]
[1]; 1 μM
  Ratio of 4-MU amount vs. positive control: 0.13
[1]; 10 μM
  Ratio of 4-MU amount vs. positive control: 0.76
[1]; 100 μM
  Ratio of 4-MU amount vs. positive control: 0.27
[1]; 1000 μM
  Ratio of 4-MU amount vs. positive control: 0.03
